{"source": "patent US7402402B2", "about": "“P38 MAPK pathway predicts endocrine-resistant growth of human breast cancer and provides a novel diagnostic and treatment target” (Baylor College of Medicine, priority 2001, dated 2008)", "key": {"p38 MAPK [1]": {"system": "p38 MAPK", "details": "baculovirus-expressed ERα, FIG. 3A"}, "p38β": {"biological_target": "p38β (Homo sapiens, UniProt Q15759)", "sequence (Q15759 whole entry)": "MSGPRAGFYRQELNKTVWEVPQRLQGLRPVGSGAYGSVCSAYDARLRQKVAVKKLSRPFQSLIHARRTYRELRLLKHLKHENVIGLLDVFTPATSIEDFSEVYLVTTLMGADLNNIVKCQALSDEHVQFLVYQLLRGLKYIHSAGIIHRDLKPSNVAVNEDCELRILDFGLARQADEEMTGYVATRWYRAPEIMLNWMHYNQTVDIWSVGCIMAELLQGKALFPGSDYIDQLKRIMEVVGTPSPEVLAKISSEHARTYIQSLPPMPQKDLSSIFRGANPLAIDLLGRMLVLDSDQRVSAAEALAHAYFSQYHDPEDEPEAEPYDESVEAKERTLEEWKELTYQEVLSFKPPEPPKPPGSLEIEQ", "experiment": "In vitro kinase assay of Example 3: p38β-induced phosphorylation of ER", "type": "biochemical", "details": "ERα and ERβ substrates"}, "p38 MAPK [2]": {"system": "p38 MAPK", "experiment": "In vitro phosphorylation of Xenopus oocyte-expressed AIB1 by p38 MAPK", "type": "biochemical", "details": "Xenopus oocyte-expressed AIB1, FIG. 4 lane 4"}, "[3]": {"system": "ER-positive MCF-7 human breast cancer cells", "details": "literature (Osborne et al., 1995), cited from earlier work"}, "[4]": {"system": "ER-positive MCF-7 human breast cancer cells", "experiment": "MCF-7 human breast cancer xenografts in athymic nude mice, tumor volume", "type": "in vivo", "details": "wild type MCF-7 xenografts, treatment from day 17, FIG. 2A; growth eventually resumes (Tam^R)", "excerpt": "The present inventors have developed an in vivo experimental model of tamoxifen resistance and resistance to estrogen deprivation in which ER-positive MCF-7 human breast cancer cells are inoculated subcutaneously into athymic nude mice [Osborne et al., 1987, Eur J Cancer Clin Oncol. 23(8):1189-1196; Osborne et al., 1991, J Natl Cancer Inst. 83(20):1477-1482]. […] This sequence of events is similar to that which occurs in patients. […] Since certain metabolites of tamoxifen have estrogenic properties, pharmacologic explanations for this tamoxifen-stimulated growth were investigated first.\nER-positive MCF-7 human breast cancer cells were grown as xenografts in athymic nude mice as described previously [Osborne et al., 1987, Eur J Cancer Clin Oncol. 23(8):1189-1196; Osborne et al., 1991, J Natl Cancer Inst. 83(20):1477-1482; Osborne et al., 1995, J Natl Cancer Inst 87:746-750]. Day 0 was the day of transplantation conducted and the day estrogen treatment began. These mice were treated with estrogen withdrawal (−E2) or tamoxifen (Tam) beginning on day 17. Tumor volume was measure every four days."}}}
{"smiles": "C[S+]([O-])c1ccc(-c2nc(-c3ccncc3)c(-c3ccc(F)cc3)[nH]2)cc1", "note": "(stereo not drawn) [SB 203580]", "values": [{"measurement": "phosphorylation of ERα by p38 MAP kinase in the presence of inhibitor", "setting": "p38 MAPK [1]", "result": "inhibited"}, {"measurement": "p38β-induced phosphorylation of ER", "setting": "p38β", "result": "can be inhibited"}, {"measurement": "AIB1 phosphorylation by p38 MAPK", "setting": "p38 MAPK [2]", "result": "inhibits AIBI phosphorylation"}]}
{"smiles": "C[C@]12CC[C@@H]3c4ccc(O)cc4C[C@@H](CCCCCCCCC[S+]([O-])CCCC(F)(F)C(F)(F)F)[C@H]3[C@@H]1CC[C@@H]2O", "note": "(stereo partly drawn) [ICI 182,780]", "values": [{"measurement": "growth of −E2^R and Tam^R resistant tumors", "setting": "[3]; resistant xenograft tumors", "result": "can still be inhibited"}]}
{"smiles": "CC/C(=C(\\c1ccccc1)c1ccc(OCCN(C)C)cc1)c1ccccc1", "note": "[tamoxifen]", "values": [{"measurement": "tumor growth in MCF-7 xenograft model", "setting": "[3]; tumor growth later resumes despite continued treatment", "result": "suppresses tumor growth for several months"}, {"measurement": "xenografted tumor growth (tumor volume over time)", "setting": "[4]", "result": "suppresses tumor growth for several months"}]}
